This is an account of results in patent US4937243A, “Thiol carboxylic acid derivatives and their use as colagenase inhibitors” (Beecham Group p.l.c., priority 1986, dated 1990).

The IC50 is the concentration at which inhibition is half-maximal.

This assay addresses T1, purified rabbit bone collagenase (Oryctolagus cuniculus, UniProt P13943).
T1 construct: from tissue; host or cells: rabbit bone
T1 sequence (P13943 99-468): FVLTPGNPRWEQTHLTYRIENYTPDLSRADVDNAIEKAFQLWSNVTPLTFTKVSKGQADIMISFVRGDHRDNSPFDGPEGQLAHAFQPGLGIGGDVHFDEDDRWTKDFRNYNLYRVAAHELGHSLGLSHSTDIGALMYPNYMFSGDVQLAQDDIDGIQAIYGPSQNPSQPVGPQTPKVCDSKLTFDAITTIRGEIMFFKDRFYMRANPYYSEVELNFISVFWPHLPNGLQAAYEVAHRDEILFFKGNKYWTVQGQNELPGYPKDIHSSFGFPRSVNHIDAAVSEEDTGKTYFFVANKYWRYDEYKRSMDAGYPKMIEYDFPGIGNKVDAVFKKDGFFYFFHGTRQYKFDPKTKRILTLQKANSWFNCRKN
As to the kind of experiment: Collagenase inhibitor assay (14C-acetylated rat skin Type I collagen as substrate). The format is biochemical. As to conditions: 5-15 min preincubation at 37° C., 37° C. overnight, read-out: IC50 (amount of compound which inhibits a known amount of enzyme by 50%). The procedure:
The test is performed essentially as in Cawston and Barrett Anal. Biochem. 99, 340-345 (1979). Compounds for testing are dissolved in methanol and added to purified rabbit bone collagenase in buffer. After a 5-15 min incubation at 37° C., the assay tubes are cooled to 4° C. and ^14 C-acetylated rat skin Type I collagen is added. The assay tubes are incubated at 37° C. overnight. The ^14 C-collagen forms insoluble fibrils which are the substrate for the enzyme.
To terminate the assay, the assay tubes are spun at 12000 rpm for 15 min. Undigested ^14 C-collagen is pelleted, digested ^14 C-collagen is found as soluble peptides in the supernatant. A sample of the supernatant is taken for liquid scintillation counting.

In the case of `CNC(=O)[C@H](Cc1ccc(OC)cc1)NC(=O)C(CC(C)C)C(S)CC(=O)OC` (mixture of isomers) [2 mixture of diastereoisomers], the 50% inhibitory concentration (IC50) came to 0.1 µM. Take `CNC(=O)[C@H](Cc1ccc(OC)cc1)NC(=O)C(CC(C)C)C(S)CC(=O)OC` (single isomer, unassigned) [2 A]: the IC50 lay within 0.0039 to 0.0064 µM. The figure for `CNC(=O)[C@H](Cc1ccc(OC)cc1)NC(=O)C(CC(C)C)C(S)CC(=O)OC` (single isomer, unassigned) [2 B] is 0.072 µM. `CNC(=O)[C@H](Cc1ccc(OC)cc1)NC(=O)C(CC(C)C)C(S)CC(=O)OCc1ccccc1` (single isomer, unassigned) [4 A]: the IC50 was found to be 0.031 µM. Turning to `CNC(=O)[C@H](Cc1ccc(OC)cc1)NC(=O)C(CC(C)C)C(S)CC(=O)OCc1ccccc1` (single isomer, unassigned) [4 B], the IC50 stood at 0.27 µM. `CNC(=O)[C@H](Cc1ccc(OC)cc1)NC(=O)C(CC(C)C)C(S)CC(=O)OCc1ccccc1` (single isomer, unassigned) [4 C]: the half-inhibitory concentration (IC50) was 0.23 µM. On to `CNC(=O)[C@H](Cc1ccc(OC)cc1)NC(=O)C(CC(C)C)C(S)CC(=O)OCc1ccccc1` (single isomer, unassigned) [4 D], for which the IC50 was determined as 12.6 µM. On to `CNC(=O)CC(S)C(CC(C)C)C(=O)N[C@@H](Cc1ccc(OC)cc1)C(=O)NC` (single isomer, unassigned) [8 A], for which the IC50 was 0.0047 to 0.014 µM. The value for `CNC(=O)[C@H](Cc1ccccc1)NC(=O)C(CC(C)C)C(S)CC(=O)OC` (single isomer, unassigned) [10 A] was 0.0083 µM.
